# Experimental data from US20240408169A1 (priority 2023, published 2024).
# pIC50: −log10 of the molar value. Read-outs that look alike come from different tables or passages of the source. *1 amine or outer side, *2 acyl side, *3 side chain or, on linkers, in order; H or OH if unused. Where a SMILES comes first, the peptide text is derived from it. Bridges are numbered along the chain shown (N, C = ends). [ ]: non-standard residue; d: D form. The star is where a group is joined. X124 = CC(C)C(=O)N1[C@@H]2CC[C@H]1C=C(c1ccc(F)cc1C[C@@H](C(=O)[*:2])N(C)[*:1])C2; X121 = C[C@@H]1CN(c2ccc(-c3ccc(Cl)cc3C[C@@H](C(=O)[*:2])N(C)[*:1])cc2)CCO1; X148 = CN([C@@H](Cc1cc(Cl)ccc1-c1ccc(S(C)(=O)=O)nc1)C(=O)[*:2])[*:1]; X120 = CN([C@@H](Cc1cc(Cl)ccc1-c1ccn(S(C)(=O)=O)c1)C(=O)[*:2])[*:1]; NMePhe(5-Cl,2-O(2-Pym)) = CN[C@@H](Cc1cc(Cl)ccc1Oc1ncccn1)C(=O)O; X162 = COc1cncc(-c2ccc(Cl)cc2C[C@@H](C(=O)[*:2])N(C)[*:1])c1; NMehhhLys(Me) = CN([C@@H](CCCCCCCN(C)[*:3])C(=O)[*:2])[*:1]; X174 = CN([C@@H](Cc1cc(Cl)cnc1-c1cnn(C)c1)C(=O)[*:2])[*:1]; X112 = CN([C@@H](Cc1cc(F)ccc1-c1cnn(C)c1)C(=O)[*:2])[*:1]; X44 = Cc1nnc(-c2ccc(Cl)cc2C[C@@H](C(=O)[*:2])N(C)[*:1])o1; X199 = CN([C@@H](Cc1cc(Cl)ccc1C1=CCOC1)C(=O)[*:2])[*:1]; NMe(hhhLys) = CN([C@@H](CCCCCCCN[*:3])C(=O)[*:2])[*:1]; X164 = C=C(C)c1ccc(Cl)cc1C[C@@H](C(=O)[*:2])N(C)[*:1]; Cyclobutanecarbonyl(1-CF3) = O=C(C1(C(F)(F)F)CCC1)*; cBuCO(3,3-F2-1-CF3) = O=C(C1(C(F)(F)F)CC(F)(F)C1)*; NMePhe(2,5-Cl2) = CN[C@@H](Cc1cc(Cl)ccc1Cl)C(=O)O; X133 = Cc1ncc(Cl)cc1C[C@@H](C(=O)[*:2])N(C)[*:1]; Pro(trans-4-F) = O=C(O)[C@@H]1C[C@@H](F)CN1; Gly(cPr) = N[C@H](C(=O)O)C1CC1
# Assays:
# CyclinA2/CDK2 = molecular target: T1, CyclinA2/CDK2 (Homo sapiens, UniProt P20248); assay: Fluorescence Polarization (FP) competitive binding assay, Cyclin A2/Cdk2;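 also: plates equilibrated two hours at room temperature before polarization reading, IC50 fitted from eight-concentration compound titration curves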
# T1 construct: purchased CRELUX Protein Services
# CyclinB1/CDK1 = molecular target: T2, CyclinB1/CDK1 (Homo sapiens, UniProt P14635); assay: Fluorescence Polarization (FP) competitive binding assay, Cyclin B1/Cdk1;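 also: fluorescence polarization read after equilibration at room temperature, with IC50 taken from serially diluted dose-response curves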
# T2 construct: purchased Eurofins, discovery 14-450
# CyclinE1/CDK2 = molecular target: T3, CyclinE1/CDK2 (Homo sapiens, UniProt P24864); assay: Fluorescence Polarization (FP) competitive binding assay, Cyclin E1/Cdk2;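 also: readings taken after two-hour equilibration at room temperature in HEPES buffer with NaCl, DTT, NP-40 and BSA, IC50 fitted from eight-concentration serial dilution series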
# T3 construct: purchased Eurofins, discovery 14-475
# NCI-H1048 cells = assay: MTT proliferation assay, NCI-H1048; type: cell-based; conditions: 5 days compound exposure, 1:3 serial dilution starting at 10 μM;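 also: Dose-response in 96-well plates over 8 or 10 concentration points, with exposure spanning 3-4 cell doublings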
# OVCAR3 cells = assay: MTT proliferation assay, OVCAR3; type: cell-based; conditions: 5 days compound exposure, 1:3 serial dilution starting at 10 μM;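 also: compound given as an 8- or 10-point series, one day after plating, with exposure covering roughly 3-4 cell doublings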
# [1] = 8 nM Cyclin A2/Cdk2, 2 nM FAM probe, average of 2-3 independent experiments, read-out: Cyclin A FP IC50
# [2] = 10 nM Cyclin B1/Cdk1, 2 nM FAM probe; average of 2-3 independent experiments; read-out: Cyclin B FP IC50
# [3] = 10 nM Cyclin E1/Cdk2, 2 nM FAM probe, average of 2-3 independent experiments, read-out: Cyclin E FP IC50
# [4] = read-out: Cyclin A FP IC50, 8 nM Cyclin A2/Cdk2, 2 nM FAM probe, average of 2-3 independent experiments
# [5] = read-out: Cyclin B FP IC50; 10 nM Cyclin B1/Cdk1, 2 nM FAM probe; average of 2-3 independent experiments
Compound,pIC50 (CyclinA2/CDK2; [1]),pIC50 (CyclinB1/CDK1; [2]),pIC50 (CyclinE1/CDK2; [3]),GI50 (NCI-H1048 cells),GI50 (OVCAR3 cells),pIC50 (CyclinA2/CDK2; [4]),pIC50 (CyclinB1/CDK1; [5]),pIC50 (CyclinE1/CDK2),pIC50 (CyclinA2/CDK2)
"Cc1ncc(Cl)cc1C[C@H]1C(=O)NCCCCCCC[C@H](N(C)C(=O)[C@@H](NC(=O)[C@@H]2C[C@@H](F)CN2C(=O)C2(C(F)(F)F)CC(F)(F)C2)C2CC2)C(=O)N[C@@H](CC(C)C)C(=O)N1C [Example 331, (2S,4R)—N—((S)-2-(((3S,6S,9S)-3-((5-chloro-2-methylpyridin-3-yl)methyl)-6-isobutyl-4-methyl-2,5,8-trioxo-1,4,7-triazacyclohexadecan-9-yl)(methyl)amino)-1-cyclopropyl-2-oxoethyl)-1-(3,3-difluoro-1-(trifluoromethyl)cyclobutane-1-carbonyl)-4-fluoropyrrolidine-2-carboxamide] ({cBuCO(3,3-F2-1-CF3)}-[Pro(trans-4-F)][Gly(cPr)][NMe(hhhLys)]L[X133]; lactam 3-C)",6.77,7.70,5.94,0.06 µM,0.05 µM,–,–,–,–
"CC(C)C[C@@H]1NC(=O)[C@@H](N(C)C(=O)[C@@H](NC(=O)[C@@H]2C[C@@H](F)CN2C(=O)C2(C(F)(F)F)CC(F)(F)C2)C2CC2)CCCCCCCN(C)C(=O)[C@H](Cc2cc(Cl)cnc2-c2cnn(C)c2)N(C)C1=O [Example 246] ({cBuCO(3,3-F2-1-CF3)}-[Pro(trans-4-F)][Gly(cPr)][NMehhhLys(Me)]L[X174]; lactam 3-C)",–,–,–,0.03 µM,0.01 µM,7.70,7.70,6.19,–
Cc1nnc(-c2ccc(Cl)cc2C[C@H]2C(=O)N(C)CCCCC=CC[C@H](N(C)C(=O)[C@@H](NC(=O)[C@@H]3C[C@@H](F)CN3C(=O)C3(C(F)(F)F)CC(F)(F)C3)C3CC3)C(=O)N[C@@H](CC(C)C)C(=O)N2C)o1 [Example 116],7.40,7.70,6.48,0.04 µM,0.05 µM,–,–,–,–
CC(C)C[C@@H]1NC(=O)[C@@H](N(C)C(=O)[C@@H](NC(=O)[C@@H]2C[C@@H](F)CN2C(=O)C2(C(F)(F)F)CCC2)C2CC2)CC=CCCCCNC(=O)[C@H](Cc2cc(F)cnc2OC2CC2)N(C)C1=O [Example 132],6.15,7.70,6.35,0.57 µM,0.38 µM,–,–,–,–
"COc1cncc(-c2ccc(Cl)cc2C[C@H]2C(=O)N(C)CCCCCCC[C@H](N(C)C(=O)[C@@H](NC(=O)[C@@H]3C[C@@H](F)CN3C(=O)C3(C(F)(F)F)CC(F)(F)C3)C3CC3)C(=O)N[C@@H](CC(C)C)C(=O)N2C)c1 [Example 199] ({cBuCO(3,3-F2-1-CF3)}-[Pro(trans-4-F)][Gly(cPr)][NMehhhLys(Me)]L[X162]; lactam 3-C)",7.52,7.70,6.04,0.03 µM,0.05 µM,–,–,–,–
"CC(C)C[C@@H]1NC(=O)[C@@H](N(C)C(=O)[C@@H](NC(=O)[C@@H]2C[C@@H](F)CN2C(=O)C2(C(F)(F)F)CC(F)(F)C2)C2CC2)CCCCCCCN(C)C(=O)[C@H](Cc2cc(F)ccc2-c2cnn(C)c2)N(C)C1=O [Example 65] ({cBuCO(3,3-F2-1-CF3)}-[Pro(trans-4-F)][Gly(cPr)][NMehhhLys(Me)]L[X112]; lactam 3-C)",7.70,7.70,6.57,0.01 µM,0.01 µM,–,–,–,–
CC(C)C[C@@H]1NC(=O)[C@@H](N(C)C(=O)[C@@H](NC(=O)[C@@H]2C[C@@H](F)CN2C(=O)C2(C(F)(F)F)CC(F)(F)C2)C2CC2)CC=CCCCCNC(=O)[C@H](Cc2cc(Cl)ccc2C2=CCN(C(=O)C(C)(C)C)CC2)N(C)C1=O [Example 91],7.00,7.70,5.24,0.23 µM,0.26 µM,–,–,–,–
"CC(C)C[C@@H]1NC(=O)[C@@H](N(C)C(=O)[C@@H](NC(=O)[C@@H]2C[C@@H](F)CN2C(=O)C2(C(F)(F)F)CC(F)(F)C2)C2CC2)CCCCCCCN(C)C(=O)[C@H](Cc2cc(Cl)ccc2-c2ccc(S(C)(=O)=O)nc2)N(C)C1=O [Example 201] ({cBuCO(3,3-F2-1-CF3)}-[Pro(trans-4-F)][Gly(cPr)][NMehhhLys(Me)]L[X148]; lactam 3-C)",–,–,–,0.06 µM,0.06 µM,–,7.70,5.71,7.52
"CC(C)C[C@@H]1NC(=O)[C@@H](N(C)C(=O)[C@@H](NC(=O)[C@@H]2C[C@@H](F)CN2C(=O)C2(C(F)(F)F)CC(F)(F)C2)C2CC2)CCCCCCCN(C)C(=O)[C@H](Cc2cc(Cl)ccc2-c2ccn(S(C)(=O)=O)c2)N(C)C1=O [Example 307] ({cBuCO(3,3-F2-1-CF3)}-[Pro(trans-4-F)][Gly(cPr)][NMehhhLys(Me)]L[X120]; lactam 3-C)",7.70,7.70,6.36,0.01 µM,0.01 µM,–,–,–,–
"CC(C)C[C@@H]1NC(=O)[C@@H](N(C)C(=O)[C@@H](NC(=O)[C@@H]2C[C@@H](F)CN2C(=O)C2(C(F)(F)F)CC(F)(F)C2)C2CC2)CCCCCCCNC(=O)[C@H](Cc2cc(Cl)ccc2Oc2ncccn2)N(C)C1=O [Example 154] ({cBuCO(3,3-F2-1-CF3)}-[Pro(trans-4-F)][Gly(cPr)][NMe(hhhLys)]L[NMePhe(5-Cl,2-O(2-Pym))]; lactam 3-C)",6.82,7.70,6.32,0.02 µM,0.02 µM,–,–,–,–
"CC(C)C[C@@H]1NC(=O)[C@@H](N(C)C(=O)[C@H](C)NC(=O)[C@@H]2C[C@@H](F)CN2C(=O)C2(C(F)(F)F)CC(F)(F)C2)CCCCCCCNC(=O)[C@H](Cc2cc(Cl)ccc2Cl)N(C)C1=O [Example 55] ({cBuCO(3,3-F2-1-CF3)}-[Pro(trans-4-F)]A[NMe(hhhLys)]L[NMePhe(2,5-Cl2)]; lactam 3-C)",6.15,7.10,5.41,0.56 µM,0.71 µM,–,–,–,–
"CC(C)C[C@@H]1NC(=O)[C@@H](N(C)C(=O)[C@@H](NC(=O)[C@@H]2C[C@@H](F)CN2C(=O)C2(C(F)(F)F)CC(F)(F)C2)C2CC2)CCCCCCCNC(=O)[C@H](Cc2cc(F)ccc2C2=C[C@@H]3CC[C@H](C2)N3C(=O)C(C)C)N(C)C1=O [Example 315] ({cBuCO(3,3-F2-1-CF3)}-[Pro(trans-4-F)][Gly(cPr)][NMe(hhhLys)]L[X124]; lactam 3-C)",7.52,7.70,6.38,0.02 µM,0.02 µM,–,–,–,–
"Cc1nnc(-c2ccc(Cl)cc2C[C@H]2C(=O)NCCCCC=CC[C@H](N(C)C(=O)[C@@H](NC(=O)[C@@H]3C[C@@H](F)CN3C(=O)C3(C(F)(F)F)CCC3)C3CC3)C(=O)N[C@@H](CC(C)C)C(=O)N2C)o1 (single isomer, unassigned) [Example 117-P1]",7.10,7.70,6.47,0.23 µM,0.18 µM,–,–,–,–
"C=C(C)c1ccc(Cl)cc1C[C@H]1C(=O)NCCCCCCC[C@H](N(C)C(=O)[C@@H](NC(=O)[C@@H]2C[C@@H](F)CN2C(=O)C2(C(F)(F)F)CC(F)(F)C2)C2CC2)C(=O)N[C@@H](CC(C)C)C(=O)N1C [Example 61] ({cBuCO(3,3-F2-1-CF3)}-[Pro(trans-4-F)][Gly(cPr)][NMe(hhhLys)]L[X164]; lactam 3-C)",7.70,7.70,6.00,0.02 µM,0.04 µM,–,–,–,–
"CC(C)C[C@@H]1NC(=O)[C@@H](N(C)C(=O)[C@@H](NC(=O)[C@@H]2C[C@@H](F)CN2C(=O)C2(C(F)(F)F)CC(F)(F)C2)C2CC2)CCCCCCCN(C)C(=O)[C@H](Cc2cc(Cl)ccc2-c2ccc(N3CCO[C@H](C)C3)cc2)N(C)C1=O [Example 414] ({cBuCO(3,3-F2-1-CF3)}-[Pro(trans-4-F)][Gly(cPr)][NMehhhLys(Me)]L[X121]; lactam 3-C)",7.52,7.70,6.03,0.01 µM,0.01 µM,–,–,–,–
Cc1nnc(-c2ccc(Cl)cc2C[C@H]2C(=O)NCCCCCCC[C@H](N(C)C(=O)[C@@H](NC(=O)[C@@H]3C[C@@H](F)CN3C(=O)C3(C(F)(F)F)CCC3)C3CC3)C(=O)N[C@@H](CC(C)C)C(=O)N2C)o1 [Example 161] ({Cyclobutanecarbonyl(1-CF3)}-[Pro(trans-4-F)][Gly(cPr)][NMe(hhhLys)]L[X44]; lactam 3-C),7.70,7.70,6.92,0.02 µM,0.02 µM,–,–,–,–
CC(=O)N1CC=C(c2ccc(Cl)cc2C[C@H]2C(=O)N(C)CCCCCC[C@H](N(C)C(=O)[C@@H](NC(=O)[C@@H]3C[C@@H](F)CN3C(=O)C3(C(F)(F)F)CC(F)(F)C3)C3CC3)C(=O)N[C@@H](CC(C)C)C(=O)N2C)CC1 [Example 74],7.30,7.70,5.44,0.11 µM,0.17 µM,–,–,–,–
"CC(C)C[C@@H]1NC(=O)[C@@H](N(C)C(=O)[C@@H](NC(=O)[C@@H]2C[C@@H](F)CN2C(=O)C2(C(F)(F)F)CC(F)(F)C2)C2CC2)CCCCCCCN(C)C(=O)[C@H](Cc2cc(Cl)ccc2C2=CCOC2)N(C)C1=O [Example 209] ({cBuCO(3,3-F2-1-CF3)}-[Pro(trans-4-F)][Gly(cPr)][NMehhhLys(Me)]L[X199]; lactam 3-C)",–,–,–,0.01 µM,0.02 µM,7.70,7.70,6.27,–
